Assay results published in patent publication US10150763B2, “Histone deacetylase inhibitors and their use in therapy” (Karus Therapeutics Limited, priority 2012, dated 2018).
Read-outs that look alike come from different tables or passages of the source.

How the values were obtained:
HDAC1 = HDAC1 (Homo sapiens (Human), UniProt Q13547); experiment: HDAC inhibitory activity assay (as described in WO2008/062201), HDAC1; assay type: biochemical
HDAC6 = HDAC6 (Homo sapiens (Human), UniProt Q9UBN7); experiment: HDAC inhibitory activity assay (as described in WO2008/062201), HDAC6; assay type: biochemical
Chain of HDAC6 (Q9UBN7 whole entry, species assumed): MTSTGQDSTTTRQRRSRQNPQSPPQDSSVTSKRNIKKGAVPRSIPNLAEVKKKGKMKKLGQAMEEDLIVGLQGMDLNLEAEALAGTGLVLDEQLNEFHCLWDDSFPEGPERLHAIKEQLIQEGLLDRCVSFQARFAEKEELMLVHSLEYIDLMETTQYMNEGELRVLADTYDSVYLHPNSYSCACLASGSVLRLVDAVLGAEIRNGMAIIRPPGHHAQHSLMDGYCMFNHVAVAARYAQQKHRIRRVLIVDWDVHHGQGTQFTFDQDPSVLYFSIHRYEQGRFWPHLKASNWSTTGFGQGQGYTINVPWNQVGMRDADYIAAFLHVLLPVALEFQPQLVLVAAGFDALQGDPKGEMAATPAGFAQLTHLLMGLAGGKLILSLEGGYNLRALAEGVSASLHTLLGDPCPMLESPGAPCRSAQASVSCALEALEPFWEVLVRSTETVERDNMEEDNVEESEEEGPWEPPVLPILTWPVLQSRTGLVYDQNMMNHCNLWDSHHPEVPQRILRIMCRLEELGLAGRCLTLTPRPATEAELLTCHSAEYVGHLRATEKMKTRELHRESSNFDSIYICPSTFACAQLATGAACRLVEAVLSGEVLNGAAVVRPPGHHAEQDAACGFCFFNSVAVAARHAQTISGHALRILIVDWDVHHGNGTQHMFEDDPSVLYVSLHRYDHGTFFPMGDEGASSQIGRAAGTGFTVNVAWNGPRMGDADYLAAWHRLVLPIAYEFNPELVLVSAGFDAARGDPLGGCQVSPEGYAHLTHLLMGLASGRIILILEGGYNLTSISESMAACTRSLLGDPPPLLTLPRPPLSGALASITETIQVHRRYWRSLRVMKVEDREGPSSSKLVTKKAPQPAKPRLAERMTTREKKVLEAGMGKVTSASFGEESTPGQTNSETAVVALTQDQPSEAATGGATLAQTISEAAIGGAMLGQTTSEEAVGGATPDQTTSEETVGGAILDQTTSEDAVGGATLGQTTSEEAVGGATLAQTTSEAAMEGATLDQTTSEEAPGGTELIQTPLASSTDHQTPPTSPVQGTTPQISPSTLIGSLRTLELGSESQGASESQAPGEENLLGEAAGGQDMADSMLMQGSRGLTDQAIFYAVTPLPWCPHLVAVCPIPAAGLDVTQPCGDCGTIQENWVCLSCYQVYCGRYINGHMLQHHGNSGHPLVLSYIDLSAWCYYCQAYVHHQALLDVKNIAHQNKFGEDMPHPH

A549 = experiment: In vitro cancer cell growth inhibition, A549; assay type: cell-based; settings: Homo sapiens
Excerpt: (§1) In Vitro Cancer Cell Growth Inhibition Data for Compound A

PC-3 = experiment: In vitro cancer cell growth inhibition, PC-3; assay type: cell-based; settings: Homo sapiens; PC-3 cancer cell growth inhibition
Excerpt: as §1

[1] = Comparative mouse pharmacokinetics (oral bioavailability); settings: in vivo, read-out: Oral bioavailability, F %
[2] = class symbol, read-out: IC50, HDAC1
[3] = class symbol, read-out: IC50, HDAC6

Chain of HDAC1 (Q13547 whole entry, species assumed): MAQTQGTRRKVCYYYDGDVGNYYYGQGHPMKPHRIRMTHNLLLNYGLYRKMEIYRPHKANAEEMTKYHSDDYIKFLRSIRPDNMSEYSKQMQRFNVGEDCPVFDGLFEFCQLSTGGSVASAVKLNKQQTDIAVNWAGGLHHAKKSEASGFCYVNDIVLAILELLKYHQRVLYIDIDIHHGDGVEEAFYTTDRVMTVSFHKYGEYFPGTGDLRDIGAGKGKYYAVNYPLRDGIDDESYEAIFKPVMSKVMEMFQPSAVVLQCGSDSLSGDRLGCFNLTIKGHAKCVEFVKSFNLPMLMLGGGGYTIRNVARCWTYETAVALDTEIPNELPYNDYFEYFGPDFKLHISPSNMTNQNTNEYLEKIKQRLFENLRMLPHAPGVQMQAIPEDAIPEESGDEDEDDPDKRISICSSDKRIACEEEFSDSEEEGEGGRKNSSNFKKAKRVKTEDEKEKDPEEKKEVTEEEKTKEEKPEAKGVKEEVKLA

IC50 (HDAC1; [2]) [nM] | IC50 (HDAC6; [3]) [nM] | SMILES | other results
– | – | Cc1nsc(N(CCCCCCC(=O)NO)c2ccccn2)n1 [Example A, N-Hydroxy-7-[(3-methyl-1,2,4-thiadiazol-5-yl)(pyridin-2-yl)amino]heptanamide] | IC50 (HDAC1): < 500 nM; IC50 (HDAC1; numeric value, read-out: IC50, HDAC1): 226 nM; IC50 (HDAC6): < 500 nM; IC50 (HDAC6; numeric value, read-out: IC50, HDAC6): 1.76 nM; IC50 (A549): 1.89 µM; IC50 (PC-3): 2.32 µM; bioavailability [1]: 19%
1000 to 10000 | – | O=C(CCCCCCN(c1ccccn1)c1nc(C(F)(F)F)ns1)NO [Example AA] | –
< 500 | < 500 | Cc1nsc(N(CCCCCCC(=O)NO)c2cccnc2)n1 [Example B, N-Hydroxy-7-[(3-methyl-1,2,4-thiadiazol-5-yl)(pyridin-3-yl)amino]heptanamide] | –
500 to 1000 | < 500 | Cc1nsc(N(CCCCCCC(=O)NO)c2ccc(F)cn2)n1 [Example CC, 7-((5-Fluoropyridin-2-yl)(3-methyl-1,2,4-thiadiazol-5-yl)amino)-N-hydroxyheptanamide] | –
1000 to 10000 | – | Cc1noc(N(CCCCCCCC(=O)NO)c2ccccn2)n1 [Example D, N-Hydroxy-8-((3-methyl-1,2,4-oxadiazol-5-yl)(pyridin-2-yl)amino)octanamide] | –
1000 to 10000 | < 500 | Cc1nsc(N(CCCCCCCC(=O)NO)c2ccc(F)cn2)n1 [Example DD, 8-((5-Fluoropyridin-2-yl)(3-methyl-1,2,4-thiadiazol-5-yl)amino)-N-hydroxyoctanamide] | –
1000 to 10000 | < 500 | Cc1nsc(N(CCCCCCC(=O)NO)c2cc(-c3ccc(F)cc3)ccn2)n1 [Example EE, 7-((4-(4-Fluorophenyl)pyridin-2-yl)(3-methyl-1,2,4-thiadiazol-5-yl)amino)-N-hydroxyheptanamide] | –
1000 to 10000 | < 500 | Cc1nsc(N(CCCCCCCC(=O)NO)c2cc(-c3ccc(F)cc3)ccn2)n1 [Example FF, 8-((4-(4-Fluorophenyl)-pyridin-2-yl)(3-methyl-1,2,4-thiadiazol-5-yl)amino)-N-hydroxyoctanamide] | –
1000 to 10000 | – | O=C(CCCCCCCN(c1ccccn1)c1nncs1)NO [Example H, N-Hydroxy-8-(pyridin-2-yl(1,3,4-thiadiazol-2-yl)amino)octanamide] | –
500 to 1000 | – | Cc1nnc(N(CCCCCCC(=O)NO)c2ccccn2)s1 [Example I, N-Hydroxy-7-((5-methyl-1,3,4-thiadiazol-2-yl)(pyridin-2-yl)amino)heptanamide] | –
1000 to 10000 | – | Cc1nnc(N(CCCCCCCC(=O)NO)c2ccccn2)s1 [Example J, N-Hydroxy-8-((5-methyl-1,3,4-thiadiazol-2-yl)(pyridin-2-yl)amino)octanamide] | –
1000 to 10000 | – | O=C(CCCCCCN(c1ccccn1)c1nccs1)NO [Example KK, N-Hydroxy-7-(pyridin-2-yl(thiazol-2-yl)amino)heptanamide] | –
1000 to 10000 | – | O=C(CCCCCCCN(c1ccccn1)c1nccs1)NO [Example LL, N-Hydroxy-8-(pyridin-2-yl(thiazol-2-yl)amino)octanamide] | –
1000 to 10000 | – | Cn1c(N(CCCCCCC(=O)NO)c2ccccn2)nc2ccccc21 [Example M, N-Hydroxy-7-((1-methyl-1H-benzo[d]imidazol-2-yl)(pyridin-2-yl)amino)heptanamide] | –
500 to 1000 | – | O=C(CCCCCCN(c1ccccn1)c1ncns1)NO [Example O, N-Hydroxy-7-(pyridin-2-yl(1,2,4-thiadiazol-5-yl)amino)heptanamide] | –
1000 to 10000 | – | O=C(CCCCCCCN(c1ccccn1)c1ncns1)NO [Example P, N-Hydroxy-8-(pyridin-2-yl(1,2,4-thiadiazol-5-yl)amino)octanamide] | –
500 to 1000 | < 500 | Cn1c(N(CCCCCCC(=O)NO)c2ccc(F)cn2)nc2ccccc21 [Example S, 7-((5-Fluoropyridin-2-yl)(1-methyl-1H-benzo[d]imidazol-2-yl)amino)-N-hydroxyheptanamide] | –
1000 to 10000 | < 500 | Cn1c(N(CCCCCCCC(=O)NO)c2ccc(F)cn2)nc2ccccc21 [Example T, 8-((5-Fluoropyridin-2-yl)(1-methyl-1H-benzo[d]imidazol-2-yl)amino)-N-hydroxyoctanamide] | –
1000 to 10000 | < 500 | Cn1ccc(N(CCCCCCC(=O)NO)c2ccc(F)cn2)n1 [Example U, 7-((5-Fluoropyridin-2-yl)(1-methyl-1H-pyrazol-3-yl)amino)-N-hydroxyheptanamide] | –
> 10000 | < 500 | Cn1ccc(N(CCCCCCCC(=O)NO)c2ccc(F)cn2)n1 [Example V, 8-((5-Fluoropyridin-2-yl)(1-methyl-1H-pyrazol-3-yl)amino)-N-hydroxyoctanamide] | –
1000 to 10000 | < 500 | O=C(CCCCCCN(c1ccc(F)cn1)c1nc2ccccc2o1)NO [Example W, 7-(Benzo[d]oxazol-2-yl(5-fluoropyridin-2-yl)amino)-N-hydroxyheptanamide] | –
1000 to 10000 | < 500 | O=C(CCCCCCCN(c1ccc(F)cn1)c1nc2ccccc2o1)NO [Example X, 8-(Benzo[d]oxazol-2-yl(5-fluoropyridin-2-yl)amino)-N-hydroxyoctanamide] | –
< 500 | < 500 | Cn1ccc(N(CCCCCCC(=O)NO)c2cc(-c3ccc(F)cc3)ccn2)n1 [Example Y, 7-((4-(4-Fluorophenyl)pyridin-2-yl)(1-methyl-1H-pyrazol-3-yl)amino)-N-hydroxyheptanamide] | –
> 10000 | < 500 | Cn1ccc(N(CCCCCCCC(=O)NO)c2cc(-c3ccc(F)cc3)ccn2)n1 [Example Z, 8-((4-(4-Fluorophenyl)pyridin-2-yl)(1-methyl-1H-pyrazol-3-yl)amino)-N-hydroxyoctanamide] | –

SMILES | IC50 (HDAC1; [2]) [nM] | IC50 (HDAC6; [3]) [nM] | other results
O=C(CCCCCCN(c1ccc(F)cn1)c1nc(C(F)(F)F)ns1)NO [Example GG, 7-((5-Fluoropyridin-2-yl)(3-(trifluoromethyl)1,2,4-thiadiazol-5-yl)amino)-N-hydroxyheptanamide] | 500 to 1000 | < 500 | –
O=C(CCCCCCCN(c1ccc(F)cn1)c1nc(C(F)(F)F)ns1)NO [Example HH, 8-((5-Fluoropyridin-2-yl)(3-(trifluoromethyl)1,2,4-thiadiazol-5-yl)amino)-N-hydroxyoctanamide] | 1000 to 10000 | < 500 | –
Cc1noc(N(CCCCCCC(=O)NO)c2ccc(F)cn2)n1 [Example Q, 7-((5-Fluoropyridin-2-yl)(3-methyl-1,2,4-oxadiazol-5-yl)amino)-N-hydroxyheptanamide] | > 10000 | < 500 | –
Cc1noc(N(CCCCCCCC(=O)NO)c2ccc(F)cn2)n1 [Example R, 8-((5-Fluoropyridin-2-yl)(3-methyl-1,2,4-oxadiazol-5-yl)amino)-N-hydroxyoctanamide] | 1000 to 10000 | < 500 | –
